Test results reported in ChEMBL document CHEMBL3758102, “Serrulatane Diterpenoid from Eremophila neglecta Exhibits Bacterial Biofilm Dispersion and Inhibits Release of Pro-inflammatory Cytokines from Activated Macrophages” (J Nat Prod, 2015).
≈ marks a conversion by molar mass, not a printed value. Calls of active or inactive are those of the source. No cut-off for these calls is given here.

Tests used:
BMDM [1] = assay: Inhibition of TNFalpha production in C57Bl/6 mouse BMDM cells at 40 to 80 uM pretreated prior to LPS-stimulation measured on day 7 by ELISA; type: functional, cell-based; conditions: C57BI/6
[2] = Induction of apoptosis in C57Bl/6 mouse BMDM cells assessed as early apoptotic cells at 80 uM by annexin V-FITC/DAPI staining-based flow cytometric analysis (reference value: 0.49%); type: functional, C57BI/6
[3] = tested on: Staphylococcus epidermidis; assay: Antibiofilm activity against Staphylococcus epidermidis ATCC 35984 assessed as 12 hrs pre-established biofilm viable cell count after 20 hrs (reference value: 1.2 x 10^10 CFU/ml); type: functional
[4] = tested on: Staphylococcus epidermidis; assay: Antibiofilm activity against Staphylococcus epidermidis ATCC 35984 assessed as reduction in 24 hrs pre-established biofilm viable cell count after 20 hrs (reference value: 1.4 x 10^10 +/- 2.6 x 10^9 CFU/ml); type: functional
[5] = Induction of apoptosis in C57Bl/6 mouse BMDM cells assessed as early apoptotic cells at 2.5 uM by annexin V-FITC/DAPI staining-based flow cytometric analysis (reference value: 0.49%); type: functional, C57BI/6
[6] = tested on: Staphylococcus epidermidis; assay: (§1) Antibiofilm activity against Staphylococcus epidermidis ATCC 35984 assessed as 12 hrs pre-established biofilm viable cell count at 0.08 umol/mesh after 20 hrs by […] using compound impregnated in polypropylene mesh (reference value: 8.6 x 10^9 CFU/ml); type: functional
[7] = tested on: Staphylococcus epidermidis; assay: Antibiofilm activity against Staphylococcus epidermidis ATCC 35984 assessed as 12 hrs pre-established supernatant viable cell count at 0.01 umol/mesh after 20 hrs by […] using compound impregnated in polypropylene mesh (Rvb =7.7 x 10^8 CFU/ml); type: functional
BMDM [8] = assay: Inhibition of IL-6 production in C57Bl/6 mouse BMDM cells at 10 uM pretreated prior to LPS-stimulation measured on day 7 by ELISA; type: functional, cell-based; conditions: C57BI/6
[9] = tested on: Staphylococcus epidermidis; assay: as §1, with “0.04” for “0.08”; type: functional
[10] = Induction of apoptosis in C57Bl/6 mouse BMDM cells assessed as viable cells at 20 uM by annexin V-FITC/DAPI staining-based flow cytometric analysis (reference value: 46.7%); type: functional; conditions: C57BI/6, BMDM, read-out: Activity
[11] = Induction of apoptosis in C57Bl/6 mouse BMDM cells assessed as dead cells at 80 uM by annexin V-FITC/DAPI staining-based flow cytometric analysis (reference value: 24.4%); type: functional, C57BI/6
[12] = tested on: Staphylococcus epidermidis; assay: Antibiofilm activity against Staphylococcus epidermidis ATCC 35984 assessed as inhibition of 3 to 6 hrs pre-established biofilm formation at 0.064 umol/well after 20 hrs by safranin staining-based method; type: functional, organism-based
[13] = tested on: Staphylococcus epidermidis; assay: Antibiofilm activity against Staphylococcus epidermidis ATCC 35984 assessed as 3 hrs pre-established biofilm viable cell count after 20 hrs (reference value: 1 x 10^10 CFU/ml); type: functional
[14] = tested on: Staphylococcus epidermidis; assay: Antibiofilm activity against Staphylococcus epidermidis ATCC 35984 assessed as inhibition of 12 hrs pre-established biofilm formation at 0.064 umol/well after 20 hrs by safranin staining-based method; type: functional, organism-based
[15] = Induction of apoptosis in C57Bl/6 mouse BMDM cells assessed as viable cells at 160 uM by annexin V-FITC/DAPI staining-based flow cytometric analysis (reference value: 46.7%); type: functional; conditions: C57BI/6, BMDM, read-out: Activity
[16] = tested on: Staphylococcus epidermidis; assay: Antibiofilm activity against Staphylococcus epidermidis ATCC 35984 assessed as reduction in 12 hrs pre-established biofilm viable cell count after 20 hrs (reference value: 1.2 x 10^10 CFU/ml); type: functional
BMDM [17] = assay: Increase in IL-1beta production in C57Bl/6 mouse BMDM cells at 2.5 to 80 uM pretreated for 1 hr prior to ATP-stimulation by ELISA; type: functional, cell-based; conditions: C57BI/6
[18] = Induction of apoptosis in C57Bl/6 mouse BMDM cells assessed as late apoptotic cells at 40 uM by annexin V-FITC/DAPI staining-based flow cytometric analysis (reference value: 28.4%); type: functional, C57BI/6
[19] = Induction of apoptosis in C57Bl/6 mouse BMDM cells assessed as dead cells at 40 uM by annexin V-FITC/DAPI staining-based flow cytometric analysis (reference value: 24.4%); type: functional, C57BI/6
[20] = tested on: Staphylococcus epidermidis; assay: Antibiofilm activity against Staphylococcus epidermidis ATCC 35984 assessed as inhibition of 12 hrs pre-established biofilm formation at 0.064 umol/well after 20 hrs by visible spectrometric analysis; type: functional, organism-based
Staphylococcus aureus [21] = assay: Antibacterial activity against Staphylococcus aureus ATCC 25923 incubated overnight by broth microdilution method; type: functional
[22] = Induction of apoptosis in C57Bl/6 mouse BMDM cells assessed as dead cells at 20 uM by annexin V-FITC/DAPI staining-based flow cytometric analysis (reference value: 24.4%); type: functional, C57BI/6
[23] = tested on: Staphylococcus epidermidis; assay: Antibiofilm activity against Staphylococcus epidermidis ATCC 35984 assessed as reduction in 12 hrs pre-established biofilm viable cell count at 0.16 umol after 20 hrs relative to control; type: functional
BMDM [24] = assay: Inhibition of IL-6 production in C57Bl/6 mouse BMDM cells at 5 uM pretreated prior to LPS-stimulation measured on day 7 by ELISA; type: functional, cell-based; conditions: C57BI/6
Staphylococcus aureus [25] = assay: Antibacterial activity against Staphylococcus aureus ATCC 29213 incubated overnight by broth microdilution method; type: functional
[26] = Induction of apoptosis in C57Bl/6 mouse BMDM cells assessed as late apoptotic cells at 80 uM by annexin V-FITC/DAPI staining-based flow cytometric analysis (reference value: 28.4%); type: functional, C57BI/6
[27] = Induction of apoptosis in C57Bl/6 mouse BMDM cells assessed as viable cells at 80 uM by annexin V-FITC/DAPI staining-based flow cytometric analysis (reference value: 46.7%); type: functional; conditions: C57BI/6, BMDM, read-out: Activity
[28] = tested on: Staphylococcus epidermidis; assay: Antibiofilm activity against Staphylococcus epidermidis ATCC 35984 assessed as inhibition of 12 hrs pre-established biofilm formation at 0.16 umol after 20 hrs by safranin staining-based UV-visible spectroscopic analysis using compound impregnated in polypropylene mesh; type: functional, organism-based

CC(C)=CCC[C@H](C)[C@@H]1CC[C@@H](C)c2c(O)cc(C(=O)O)cc21
inhibition (BMDM [1]): Active
Activity [2]: 0.81%
Activity [3]: 6 ×10³ CFU/ml
Activity [4]: 2 log10CFU/ml
Activity [5]: 2.54%
Activity [6]: 2.7 ×10⁵ CFU/ml
Activity [7]: 3.4 ×10⁸ CFU/ml
inhibition (BMDM [8]): inactive
Activity [9]: 6.7 ×10⁸ CFU/ml
viability at 20 µM [10]: 62.2%
Activity [11]: 23.9%
inhibition [12]: Active
Activity [13]: 0 CFU/ml
inhibition [14]: Active
viability at 160 µM [15]: 53%
Activity [16]: 7 log10CFU/ml
Activity (BMDM [17]): inactive
Activity [18]: 27.7%
Activity [19]: 21.8%
inhibition [20]: Active
MBC (Staphylococcus aureus [21]): 82 µM (≈ 25.9 µg/mL)
MIC (Staphylococcus aureus [21]): 41 µM (≈ 13 µg/mL)
Activity [22]: 6.76%
Activity [23]: 5 log10CFU/ml
inhibition (BMDM [24]): Active
MBC (Staphylococcus aureus [25]): 82 µM (≈ 25.9 µg/mL)
MIC (Staphylococcus aureus [25]): 82 µM (≈ 25.9 µg/mL)
Activity [26]: 44.4%
viability at 80 µM [27]: 31%
inhibition [28]: Active
